Measurements: paper PMC5706701, “Development of a homogenous high-throughput assay for inositol hexakisphosphate kinase 1 activity” (PLoS ONE, 2017)
Where a name gives a salt, the structure may show the parent alone.

Key:
Type in all cases: biochemical
human IP6K2 = target: T1, human IP6K2 (Homo sapiens, UniProt Q9UHH9); experiment: IP6K2 inhibition dose-response assay (ADP-Glo Max); conditions: 1mM ATP, 100μM IP6, 7.5nM IP6K2, 30 minutes, 37°C; read-out: IC50 IP6K2
T1 construct: GST (N, cleaved yes); made in house; host or cells: C43 E. coli, pGEX-6P-2
T1 sequence (Q9UHH9 1-426): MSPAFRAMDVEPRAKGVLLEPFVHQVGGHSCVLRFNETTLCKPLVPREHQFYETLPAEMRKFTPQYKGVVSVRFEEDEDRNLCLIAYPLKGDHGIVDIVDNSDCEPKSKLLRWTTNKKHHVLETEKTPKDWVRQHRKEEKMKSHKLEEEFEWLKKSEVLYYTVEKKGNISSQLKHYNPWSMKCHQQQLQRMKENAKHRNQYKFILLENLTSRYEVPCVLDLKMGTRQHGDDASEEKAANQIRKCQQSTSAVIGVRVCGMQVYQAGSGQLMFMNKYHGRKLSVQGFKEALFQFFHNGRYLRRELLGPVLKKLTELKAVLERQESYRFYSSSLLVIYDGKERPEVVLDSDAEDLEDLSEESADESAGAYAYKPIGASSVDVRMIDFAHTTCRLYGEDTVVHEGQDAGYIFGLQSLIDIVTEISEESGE
Protocol: (§1) Human IP6K1 (NCBI accession# Q92551), human IP6K2 (NCBI accession# Q9UHH9), and human IP6K3 (NCBI accession# Q96PC2) were purified from C43 E. coli transformed with pGEX-6P-2 expression vector containing GST tagged IP6K1, IP6K2, or IP6K3. The bacteria were grown overnight in a starter culture containing LB (Lennox) and 100μg/mL ampicillin (Sigma). The starter culture was diluted 1:100 into LB (Lennox) and allowed to grow to an optical density of 0.8 at 37°C when protein expression was induced with 1mM IPTG (Calbiochem) for 5hrs. The cells were pelleted with 3000RCF at 4°C and frozen at -80°C. Later, the bacteria was re-suspended in lysis buffer (20mM Tris, 200mM NaCl, 5mM DTT, 1% Triton-X, 0.5% IPEGAL, 1mg/mL lysozyme, and 1 protease inhibitor tablet (Sigma) per 100mL buffer, pH 7.4) and rotated on an end over end shaker for 30 min at 4°C followed by sonication. […]
(§2) For the dose response assays, 7–10 serial 3-fold compound dilutions were prepared in DMSO and then each compound was diluted with assay buffer (50mM Tris, 10mM MgCl2, 2.5mM DTT, 0.02% Triton X-100, pH 6.9) to reach the desired inhibitor concentrations in 25% DMSO. […] Luminescence generated was read on a Tecan Infinite M100 Pro plate reader. Samples were run in quadruplicate and the data was analyzed using a […] variable slope inhibition parameter on GraphPad Prism 7. […]

[1] = test system: enzymes involved in the detection steps of the kit; experiment: Counter-screen against the detection steps of the ADP-Glo Max kit (no enzyme, no IP6); conditions: 10μM compound, 25μM ADP and 975μM ATP
Protocol: The Sigma LOPAC was obtained as 10mM DMSO stock solutions from the Johns Hopkins ChemCore facility. Each compound was first diluted to 50μM and 25% DMSO in assay buffer. The inhibition assay was performed as described above with 1μL of compound and 4μL of kinase master mix so that the final compound concentration was 10μM in 5% DMSO. […] Hits were determined based by the Z score, which is calculated as Z = (Xi-Xavg)/Sx, where Xi is the raw measurement on the i^th compound, Xavg and Sx are the mean and the standard deviation, respectively, of all measurements within the plate. Hits identified from the screen were repeated in the assay in quadruplicate for confirmation. These confirmed hits were then tested to determine if they inhibited the enzymes involved in the detection steps of the kit. Possible interference of the compounds was assessed by measuring the degree to which they inhibited the signal produced by a 25μM ADP in the presence of 975μM ATP. This experiment was run as described above for the inhibition assays in the absence of enzyme and IP6.

human IP6K3 = target: T2, human IP6K3 (Homo sapiens, UniProt Q96PC2); experiment: IP6K3 inhibition dose-response assay (ADP-Glo Max); conditions: 1mM ATP, 100μM IP6, 120nM IP6K3, 120 minutes, 37°C; read-out: IC50 IP6K3
T2 construct: GST (N, cleaved yes); made in house; host or cells: C43 E. coli, pGEX-6P-2
T2 sequence (Q96PC2 1-410): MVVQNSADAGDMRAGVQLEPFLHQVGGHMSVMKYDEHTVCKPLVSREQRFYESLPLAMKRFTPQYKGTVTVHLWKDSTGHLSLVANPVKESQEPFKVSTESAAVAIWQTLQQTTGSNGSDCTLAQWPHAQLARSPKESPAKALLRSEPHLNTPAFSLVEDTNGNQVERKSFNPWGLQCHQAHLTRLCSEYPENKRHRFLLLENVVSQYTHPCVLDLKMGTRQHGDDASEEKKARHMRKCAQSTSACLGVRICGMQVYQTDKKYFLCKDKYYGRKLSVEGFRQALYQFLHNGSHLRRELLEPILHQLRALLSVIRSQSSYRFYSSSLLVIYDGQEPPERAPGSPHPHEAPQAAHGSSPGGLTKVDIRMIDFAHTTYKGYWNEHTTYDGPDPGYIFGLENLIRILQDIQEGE
Protocol: as §1, §2

Human IP6K1 = target: T3, Human IP6K1 (Homo sapiens, UniProt Q92551); experiment: IP6K1 high-throughput screen of the Sigma LOPAC (ADP-Glo Max, single point)
T3 construct: GST (N, cleaved yes); made in house; host or cells: C43 E. coli, pGEX-6P-2

[2] = LOPAC single-point screen, ADP-Glo Max luminescence raw signal per well
[3] = LOPAC single-point screen, ADP-Glo Max raw signal per well
[4] = LOPAC single-point screen, Z-score against plate average and StDev
[5] = LOPAC single-point screen, Z-score relative to plate average and StDev
[6] = Sigma LOPAC single-point screen, ADP-Glo Max raw signal per well
[7] = Sigma LOPAC single-point screen, Z-score from plate average and StDev
[8] = LOPAC single-point screen, Z-score from raw signal with plate average and StDev

T3 sequence (Q92551 whole entry): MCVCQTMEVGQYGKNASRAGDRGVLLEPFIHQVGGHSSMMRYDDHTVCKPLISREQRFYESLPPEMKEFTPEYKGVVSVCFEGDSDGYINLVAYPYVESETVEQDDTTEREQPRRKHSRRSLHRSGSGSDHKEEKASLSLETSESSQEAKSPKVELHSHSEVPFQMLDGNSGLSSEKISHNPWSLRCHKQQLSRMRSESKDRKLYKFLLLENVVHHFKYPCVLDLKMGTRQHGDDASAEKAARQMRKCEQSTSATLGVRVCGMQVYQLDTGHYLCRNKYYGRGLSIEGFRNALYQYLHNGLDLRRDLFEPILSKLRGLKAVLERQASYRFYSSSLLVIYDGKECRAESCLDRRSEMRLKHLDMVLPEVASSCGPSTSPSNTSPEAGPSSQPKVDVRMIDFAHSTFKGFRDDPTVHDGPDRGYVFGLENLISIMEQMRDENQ

Row | Compound | Raw Signal (Human IP6K1; [2]) | Raw Signal (Human IP6K1; [3]) | Z-score (Human IP6K1; [4]) | further results
1 | O=c1c(O)c(-c2cc(O)c(O)c(O)c2)oc2cc(O)cc(O)c12 [Myricetin] | 8540 | – | – | IC50 (human IP6K2): 23.4 ± 1.1 µM; Signal loss in counter-screen of detection steps [1]: significantly inhibit the secondary reagents; IC50 (human IP6K3): 4.93 ± 1.14 µM; Inhibition of enzyme activity in initial LOPAC screen (Human IP6K1; single point 100μM compound, 62.5μM ATP): 100%
2 | COc1cccc(OC)c1OCCNCC1CSc2ccccc2O1 (stereo not drawn) [Benoxathian hydrochloride] | – | 57648 | -0.04669 | –
3 | O=C1c2c(O)ccc(O)c2C(=O)c2c(NCCNCCO)ccc(NCCNCCO)c21 [Mitoxantrone] | 48302 | – | – | Z-score (Human IP6K1; [5]): -1.024
4 | Nc1c(S(=O)(=O)O)cc(Nc2ccc(Nc3nc(Cl)nc(Nc4cccc(S(=O)(=O)O)c4)n3)c(S(=O)(=O)O)c2)c2c1C(=O)c1ccccc1C2=O [Reactive Blue 2] | 20201 | – | – | Z-score (Human IP6K1; [5]): -6.96
5 | CCCn1c(C)c(C(=O)c2cccc3ccccc23)c2ccccc21 [JWH-015] | – | 54462 | 0.01151 | –
6 | CNC[C@H](O)c1cccc(O)c1 [Phenylephrine hydrochloride] | – | 56055 | 0.2792 | –
7 | O=c1c2ccccc2[se]n1-c1ccccc1 [Ebselen] | – | 54986 | -0.03677 | –
8 | O=C(O)Cc1c[nH]c2ccc(O)cc12 [5-Hydroxyindolacetic acid] | – | – | – | Raw Signal (Human IP6K1; [6]): 56978; Z-score (Human IP6K1; [7]): 0.3678
9 | CN1CCN(c2ccc3ccccc3n2)CC1.O=C(O)/C=C\C(=O)O.O=C(O)/C=C\C(=O)O [Quipazine, N-methyl-, dimaleate] | 51627 | – | – | Z-score (Human IP6K1; [5]): -0.8542
10 | CC(C)[N+]1(C)[C@@H]2CC[C@H]1C[C@@H](OC(=O)C(CO)c1ccccc1)C2 (stereo partly drawn) [Ipratropium bromide] | – | – | – | Raw Signal (Human IP6K1; [6]): 56944; Z-score (Human IP6K1; [7]): 0.3609
11 | Cc1oncc1C(=O)Nc1ccc(C(F)(F)F)cc1 [Leflunomide] | 65933 | – | – | Z-score (Human IP6K1; LOPAC single-point screen, Z-score from plate average and StDev): 1.939
12 | C#CCN(C)Cc1ccccc1 [Pargyline hydrochloride] | – | 54085 | – | Z-score (Human IP6K1; [8]): -0.3767
13 | CCCN(CCC)C1Cc2cc(OC)c(OC)cc2C1.O=C(O)/C=C\C(=O)O [U-99194A maleate] | – | 57664 | 0.3187 | –
14 | CN1Cc2c(N)cccc2C(c2ccccc2)C1 (stereo not drawn) [Nomifensine maleate] | – | 56397 | 0.3366 | –
15 | COc1cc(CNC(=O)CCCCCCC(C)C)ccc1O [Dihydrocapsaicin] | – | 52937 | – | Z-score (Human IP6K1; [8]): -0.2447
16 | N=C(N)NCCC[C@H](N)C(=O)O [L-Arginine] | – | 58902 | 0.1742 | –
17 | Cl.Cl.Clc1cccc(N2CCNCC2)c1 | – | – | – | Raw Signal (Human IP6K1; [6]): 60295; Z-score (Human IP6K1; [7]): 0.4195
18 | S=C(Nc1ccccc1)Nc1nccs1 [1-Phenyl-3-(2-thiazolyl)-2-thiourea] | – | 53752 | – | Z-score (Human IP6K1; [8]): -0.1078
19 | CC[C@H](NC(=O)c1c(C)c(-c2ccccc2)nc2ccccc12)c1ccccc1 [SB 222200] | – | 57369 | – | Z-score (Human IP6K1; [8]): -0.09583
20 | Cc1ccccc1N1C(=O)c2cc(S(N)(=O)=O)c(Cl)cc2NC1C (stereo not drawn) [Metolazone] | – | 54501 | 0.01806 | –
21 | CCCCC1(C2CCCC2)Cc2cc(OCC(=O)O)c(Cl)c(Cl)c2C1=O (stereo in doubt) [R(+)-Butylindazone] | – | 53463 | – | Z-score (Human IP6K1; [8]): -0.3461
22 | CCCC(=O)NCCc1c2n(c3ccc(OC)cc13)Cc1ccccc1-2 [IIK7] | – | 53632 | – | Z-score (Human IP6K1; [8]): -0.128
23 | CC[N+](C)(CC)CC(=O)Nc1c(C)cccc1C.[Cl-] [Lidocaine N-methyl hydrochloride] | 51540 | – | – | Z-score (Human IP6K1; [5]): -0.4795
24 | Cl.c1ccc2c(N3CCNCC3)cccc2c1 [1-(1-Naphthyl)piperazine hydrochloride] | – | 55645 | -0.07359 | –
25 | CC1(C)NC(=O)N(c2ccc([N+](=O)[O-])c(C(F)(F)F)c2)C1=O [Nilutamide] | – | – | – | Raw Signal (Human IP6K1; [6]): 62066; Z-score (Human IP6K1; [7]): 1.289
26 | COC(=O)c1c(-c2cc(OC)c(OC)c(OC)c2)c2ccnc(OCc3ncccn3)c2c(=O)n1Cc1ccnc(C)c1 [T-0156] | 53574 | – | – | Z-score (Human IP6K1; [5]): -0.476
27 | Cc1nc2sccn2c(=O)c1CCN1CCC(=C(c2ccccc2)c2ccc(F)cc2)CC1 [Diacylglycerol kinase inhibitor I] | – | – | – | Raw Signal (Human IP6K1; [6]): 59347; Z-score (Human IP6K1; [7]): 0.8489
28 | CC(C)(C)[C@]1(O)CCN2C[C@H]3c4ccccc4CCc4cccc(c43)[C@@H]2C1 [(+)-Butaclamol hydrochloride] | 54506 | – | – | Z-score (Human IP6K1; [5]): -0.6001
29 | COc1ccccc1N1CCN(CCN2C(=O)CC3(CCCC3)CC2=O)CC1.Cl.Cl [BMY 7378 dihydrochloride] | 52642 | – | – | Z-score (Human IP6K1; [5]): -0.9284
30 | CCCn1c(=O)c2[nH]c(C3CCCC3)nc2n(CCCOC(=O)c2ccc(S(=O)(=O)F)cc2)c1=O [FSCPX] | 51325 | – | – | Z-score (Human IP6K1; [5]): -0.7803
